test system: human dermal fibroblasts; assay: Human dermal fibroblast cells (hDFC) proliferation, cell viability assay (CellTiter-Glo, manual cell counting); format: cell-based; conditions: hDFCs proliferation; control is DMSO; note: test concentration or dose not given here

Structure (SMILES) | Activity (Percent Increase Proliferation of hFDPCs (%))
Nn1c(SCC(=O)N2CCCCC2)nnc1-c1ccccc1 [I-2, 2-[(4-amino-5-phenyl-1,2,4-triazol-3-yl)sulfanyl]-1-piperidin-1-ylethanone] | B (increased proliferation of hFDPCs equals to or larger than 1% and less than 4%)
Cc1ccc(-c2nnc(SCC(=O)N3CCCC3)n2N)cc1 [I-3, 2-[[4-amino-5-(4-methylphenyl)-1,2,4-triazol-3-yl]sulfanyl]-1-pyrrolidin-1-ylethanone] | C (increased proliferation of hFDPCs equals to or larger than 4% and less than 8%)
Nn1c(SCC(=O)N2CCCC2)nnc1C1CCCCC1 [I-4, 2-[(4-amino-5-cyclohexyl-1,2,4-triazol-3-yl)sulfanyl]-1-pyrrolidin-1-ylethanone] | C (increased proliferation of hFDPCs equals to or larger than 4% and less than 8%)
CCn1c(SCC(=O)N2CCCCCC2)nnc1-c1ccncc1 [I-5, 1-(azepan-1-yl)-2-[(4-ethyl-5-pyridin-4-yl-1,2,4-triazol-3-yl)sulfanyl]ethanone] | C (increased proliferation of hFDPCs equals to or larger than 4% and less than 8%)
C=CCn1c(SCC(=O)N2CCCCC2)nnc1-c1ccncc1 [I-6, 1-piperidin-1-yl-2-[(4-prop-2-enyl-5-pyridin-4-yl-1,2,4-triazol-3-yl)sulfanyl]ethanone] | C (increased proliferation of hFDPCs equals to or larger than 4% and less than 8%)
Cn1c(SCC(=O)N2CCCCC2)nnc1-c1ccccc1 [I-7, 2-[(4-methyl-5-phenyl-1,2,4-triazol-3-yl)sulfanyl]-1-piperidin-1-ylethanone] | B (increased proliferation of hFDPCs equals to or larger than 1% and less than 4%)
CCCC(=O)NCc1ccc(OC)cc1 [II-2, N-[(4-methoxyphenyl)methyl]butanamide] | B (increased proliferation of hFDPCs equals to or larger than 1% and less than 4%)
CCN(CC)CC(=O)NC(C)c1ccccc1 (centres unmarked) [II-3, 2-(diethylamino)-N-(1-phenylethyl)acetamide] | A (increased proliferation of hFDPCs of less than 1%)
CCC(=O)NC(C)c1ccccc1 (centres unmarked) [II-4, N-(1-phenylethyl)propanamide] | C (increased proliferation of hFDPCs equals to or larger than 4% and less than 8%)
CC(C)CC(=O)NC(C)c1ccccc1 (centres unmarked) [II-5, 3-methyl-N-(1-phenylethyl)butanamide] | D (increased proliferation of hFDPCs equals to or larger than 8%)
COc1ccc(CCCNC(=O)C(C)C)cc1 [II-6, N-[3-(4-methoxyphenyl)propyl]-2-methylpropanamide] | C (increased proliferation of hFDPCs equals to or larger than 4% and less than 8%)
COc1ccc(CNC(=O)C(=O)NCCCn2ccnc2)cc1 [III-2, N-(3-imidazol-1-ylpropyl)-N′-[(4-methoxyphenyl)methyl]oxamide] | D (increased proliferation of hFDPCs equals to or larger than 8%)
COc1ccc(CNC(=O)C(=O)NC(C)c2ccccc2)cc1 (centres unmarked) [III-3, N-[(4-methoxyphenyl)methyl]-N′-(1-phenylethyl)oxamide] | B (increased proliferation of hFDPCs equals to or larger than 1% and less than 4%)
CC(NC(=O)C(=O)NC(C)c1ccccc1)c1ccccc1 (centres unmarked) [III-4, N,N′-bis(1-phenylethyl)oxamide] | B (increased proliferation of hFDPCs equals to or larger than 1% and less than 4%)
COc1ccc(C(=O)NC(C(=O)NC(C)Cn2ccnc2)C(C)C)cc1 (centres unmarked) [III-5, N-[1-(1-imidazol-1-ylpropan-2-ylamino)-3-methyl-1-oxobutan-2-yl]-4-methoxybenzamide] | B (increased proliferation of hFDPCs equals to or larger than 1% and less than 4%)
COCCNC(=O)c1ccc2[nH]c3c(c2c1)CCCC3 [IV-3, N-(2-methoxyethyl)-6,7,8,9-tetrahydro-5H-carbazole-3-carboxamide] | D (increased proliferation of hFDPCs equals to or larger than 8%)
CC(O)CNC(=O)c1ccc2[nH]c3c(c2c1)CCCC3 (centres unmarked) [IV-4, N-(2-hydroxypropyl)-6,7,8,9-tetrahydro-5H-carbazole-3-carboxamide] | C (increased proliferation of hFDPCs equals to or larger than 4% and less than 8%)
O=C(O)CN1CCC(NC(=O)C2CCCc3c2[nH]c2ccccc32)CC1 (centres unmarked) [IV-5, 2-[4-(2,3,4,9-tetrahydro-1H-carbazole-1-carbonylamino)piperidin-1-yl]acetic acid] | D (increased proliferation of hFDPCs equals to or larger than 8%)
O=C(O)CNC(=O)c1ccc2[nH]c3c(c2c1)CCCC3 [IV-6, 2-(6,7,8,9-tetrahydro-5H-carbazole-3-carbonylamino)acetic acid] | B (increased proliferation of hFDPCs equals to or larger than 1% and less than 4%)
CC1=C(/C=C/C(C)=C/C=C/C(C)=C/CO)C(C)(C)CCC1 [Retinol, reference compound] | B (increased proliferation of hFDPCs equals to or larger than 1% and less than 4%)
CN(C)CCCn1c(=O)[nH]c2ccccc2c1=O [V-2, 3-[3-(dimethylamino)propyl]-1H-quinazoline-2,4-dione] | A (increased proliferation of hFDPCs of less than 1%)
CN(C)CCn1c(=O)[nH]c2ccccc2c1=O [V-3, 3-[2-(dimethylamino)ethyl]-1H-quinazoline-2,4-dione] | A (increased proliferation of hFDPCs of less than 1%)
COC(=O)Cn1c(=O)[nH]c2ccccc2c1=O [V-4, methyl 2-(2,4-dioxo-1H-quinazolin-3-yl)acetate] | A (increased proliferation of hFDPCs of less than 1%)
COCCOCCCn1c(=O)[nH]c2ccccc2c1=O [V-5, 3-[3-(2-methoxyethoxy)propyl]-1H-quinazoline-2,4-dione] | D (increased proliferation of hFDPCs equals to or larger than 8%)
CC(NC(=O)CNC(=O)c1cccs1)c1ccccc1 (centres unmarked) [VI-1, N-[2-oxo-2-(1-phenylethylamino)ethyl]thiophene-2-carboxamide] | D (increased proliferation of hFDPCs equals to or larger than 8%)
Cc1ccsc1C(=O)NC(C)C [VI-2, 3-methyl-N-propan-2-ylthiophene-2-carboxamide] | B (increased proliferation of hFDPCs equals to or larger than 1% and less than 4%)
CNC(=O)C(CC(C)C)NC(=O)c1sccc1OC (centres unmarked) [VI-3, 3-methoxy-N-[4-methyl-1-(methylamino)-1-oxopentan-2-yl]thiophene-2-carboxamide] | D (increased proliferation of hFDPCs equals to or larger than 8%)
CCN1C(=S)N(C)NC1(C)C [VII-1, 4-ethyl-2,5,5-trimethyl-1,2,4-triazolidine-3-thione] | D (increased proliferation of hFDPCs equals to or larger than 8%)
NN1CCNCC1 [VII-2, piperazin-1-amine] | D (increased proliferation of hFDPCs equals to or larger than 8%)
